# Measurements published in patent US7214794B2, “Ceramide analogs, process for their preparation and their use as antitumor agents” (Bracco S.p.A., priority 1999, dated 2007).
# Tested on: human leukemia cell line CCRF/CEM
# Assay: Cytotoxicity test (growth inhibition of CCRF/CEM cells)
# Type: cell-based
# Settings: 72 hours exposure, cell count, non-linear regression, read-out: IC50 (concentration capable of inhibiting 50% of cell growth)
# Description: The cytotoxicity of the compounds synthesized 1–28 was assessed using a human leukemia cell line called CCRF/CEM. The CCRF/CEM cells were cultured in a culture medium containing RPMI 1640 (90%), bovine fetal sera (10%) and interleukin-2 (100 U/ml). The cytotoxicity assay was performed on […] CCRF/CEM cells seeded in 35 mm wells in 2 ml of culture medium. The cells were treated with the compounds under consideration for 72 hours and at the end of the period of exposure their number was counted and compared with that of control cells treated with C2-ceramide in order to establish the percentage of growth inhibition. The concentration capable of inhibiting 50% of cell growth was calculated by non-linear regression of the experimental data as described in M. Macchia, N. Jannitti, G. B. Gervasi, R. Danesi, J Med Chem, (1996) 39 (7): 1352–1356.
structure (smiles),measurement,value
"CCCCCCCCCCCCC/C=C/[C@@H](O)[C@H](CO)NC(C)=O [controls, C2-ceramide]",IC50,31.6 µM
